Test results taken from ChEMBL document CHEMBL1909046, “DrugMatrix in vitro pharmacology data”.

Tests used:
[1] = target: Mitogen-activated protein kinase 1 (Homo sapiens, UniProt P28482); test: DRUGMATRIX: Protein Serine/Threonine Kinase, ERK2 enzyme inhibition (substrate: Myelin Basic Protein); set-up: species or system Escherichia coli; settings: Not Active = under 50% inhibition at 10 µM
Glucocorticoid receptor = target: T1, Glucocorticoid receptor (Homo sapiens, UniProt P04150); settings: hela s3; note: in other assays of this panel Not Active means under 50% inhibition at 10 µM
T1 sequence (P04150 whole entry): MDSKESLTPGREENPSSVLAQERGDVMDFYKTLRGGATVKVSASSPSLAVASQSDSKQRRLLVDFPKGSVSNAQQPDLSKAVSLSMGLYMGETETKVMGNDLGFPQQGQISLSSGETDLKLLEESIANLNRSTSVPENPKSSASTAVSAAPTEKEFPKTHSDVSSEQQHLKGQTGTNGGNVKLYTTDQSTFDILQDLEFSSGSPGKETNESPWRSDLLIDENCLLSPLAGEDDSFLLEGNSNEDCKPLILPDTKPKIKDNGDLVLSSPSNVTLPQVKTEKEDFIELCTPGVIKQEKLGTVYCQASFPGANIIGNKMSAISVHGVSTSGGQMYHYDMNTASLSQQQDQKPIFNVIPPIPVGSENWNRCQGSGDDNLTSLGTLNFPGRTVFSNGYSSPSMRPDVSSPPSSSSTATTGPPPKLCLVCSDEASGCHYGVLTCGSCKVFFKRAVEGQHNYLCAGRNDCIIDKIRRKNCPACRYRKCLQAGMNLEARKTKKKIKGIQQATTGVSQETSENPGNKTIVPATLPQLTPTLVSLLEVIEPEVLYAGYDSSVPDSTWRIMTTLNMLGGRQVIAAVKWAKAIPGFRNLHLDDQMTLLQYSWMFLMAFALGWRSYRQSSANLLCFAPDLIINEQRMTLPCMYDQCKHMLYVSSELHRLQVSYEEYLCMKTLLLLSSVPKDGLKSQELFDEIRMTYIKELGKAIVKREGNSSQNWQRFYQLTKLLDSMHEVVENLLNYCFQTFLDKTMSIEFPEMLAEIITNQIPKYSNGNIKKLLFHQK

Melanocortin receptor 3 = Melanocortin receptor 3 (Homo sapiens, UniProt P41968); format: cell membranes, Membrane; settings: hek293; note: in other assays of this panel Not Active means under 50% inhibition at 10 µM
[2] = DRUGMATRIX: GABAA, Chloride Channel, TBOB radioligand binding (ligand: [3H] TBOB); format: cell membranes, Rattus norvegicus, Wistar, Cerebral cortex, Membrane; settings: Not Active = under 50% inhibition at 10 µM
Insulin receptor = Insulin receptor (Rattus norvegicus, UniProt P15127); format: cell membranes, Wistar, Liver, Membrane; note: in other assays of this panel Not Active means under 50% inhibition at 10 µM
Chain of Insulin receptor (P15127 27-759 limits assumed): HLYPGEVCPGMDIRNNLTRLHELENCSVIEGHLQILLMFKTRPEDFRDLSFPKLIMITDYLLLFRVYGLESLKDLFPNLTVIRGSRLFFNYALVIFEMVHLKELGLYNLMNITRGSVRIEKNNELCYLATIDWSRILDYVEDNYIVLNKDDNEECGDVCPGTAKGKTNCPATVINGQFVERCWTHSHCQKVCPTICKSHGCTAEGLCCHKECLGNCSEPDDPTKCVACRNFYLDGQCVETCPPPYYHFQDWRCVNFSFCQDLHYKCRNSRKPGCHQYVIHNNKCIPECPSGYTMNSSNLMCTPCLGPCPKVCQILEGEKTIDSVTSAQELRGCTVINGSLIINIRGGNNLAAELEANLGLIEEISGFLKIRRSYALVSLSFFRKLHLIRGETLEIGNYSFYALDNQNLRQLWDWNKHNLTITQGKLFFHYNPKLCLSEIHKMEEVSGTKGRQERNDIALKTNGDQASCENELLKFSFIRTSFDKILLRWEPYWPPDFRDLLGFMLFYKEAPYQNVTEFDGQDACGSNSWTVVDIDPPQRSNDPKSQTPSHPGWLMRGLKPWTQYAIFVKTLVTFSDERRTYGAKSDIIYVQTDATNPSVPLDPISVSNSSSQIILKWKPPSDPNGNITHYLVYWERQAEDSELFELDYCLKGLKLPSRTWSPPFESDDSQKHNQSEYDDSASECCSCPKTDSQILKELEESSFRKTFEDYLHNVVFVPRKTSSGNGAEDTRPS
Chain of Insulin receptor (P15127 764-1383 limits assumed): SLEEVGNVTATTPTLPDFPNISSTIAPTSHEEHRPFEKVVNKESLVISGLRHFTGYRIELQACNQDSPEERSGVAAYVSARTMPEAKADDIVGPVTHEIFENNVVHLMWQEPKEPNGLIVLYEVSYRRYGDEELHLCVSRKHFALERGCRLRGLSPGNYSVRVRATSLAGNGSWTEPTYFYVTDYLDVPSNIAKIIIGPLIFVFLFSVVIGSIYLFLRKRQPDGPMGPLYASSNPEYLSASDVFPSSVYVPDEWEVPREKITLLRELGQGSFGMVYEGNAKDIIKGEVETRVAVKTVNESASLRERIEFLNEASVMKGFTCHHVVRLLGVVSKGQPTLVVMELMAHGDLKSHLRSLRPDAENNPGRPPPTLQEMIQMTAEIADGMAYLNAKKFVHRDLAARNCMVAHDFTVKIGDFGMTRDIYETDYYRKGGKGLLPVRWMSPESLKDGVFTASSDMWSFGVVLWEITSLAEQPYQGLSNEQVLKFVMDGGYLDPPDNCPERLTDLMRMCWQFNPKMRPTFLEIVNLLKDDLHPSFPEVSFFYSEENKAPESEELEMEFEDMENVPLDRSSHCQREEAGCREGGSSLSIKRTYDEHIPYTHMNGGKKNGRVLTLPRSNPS

Cytochrome P450 2C9 = Cytochrome P450 2C9 (Homo sapiens, UniProt P11712); settings: bti-tn-5b1-4; note: in other assays of this panel Not Active means under 50% inhibition at 10 µM
[3] = DRUGMATRIX: Tumor Necrosis Factor (TNF), Non-Selective radioligand binding (ligand: [125I] TNF-alpha); format: cell membranes, Membrane; settings: u-937; Not Active = under 50% inhibition at 10 µM
Caspase-1 = target: T2, Caspase-1 (Homo sapiens, UniProt P29466); set-up: species or system Escherichia coli
T2 sequence (P29466 whole entry): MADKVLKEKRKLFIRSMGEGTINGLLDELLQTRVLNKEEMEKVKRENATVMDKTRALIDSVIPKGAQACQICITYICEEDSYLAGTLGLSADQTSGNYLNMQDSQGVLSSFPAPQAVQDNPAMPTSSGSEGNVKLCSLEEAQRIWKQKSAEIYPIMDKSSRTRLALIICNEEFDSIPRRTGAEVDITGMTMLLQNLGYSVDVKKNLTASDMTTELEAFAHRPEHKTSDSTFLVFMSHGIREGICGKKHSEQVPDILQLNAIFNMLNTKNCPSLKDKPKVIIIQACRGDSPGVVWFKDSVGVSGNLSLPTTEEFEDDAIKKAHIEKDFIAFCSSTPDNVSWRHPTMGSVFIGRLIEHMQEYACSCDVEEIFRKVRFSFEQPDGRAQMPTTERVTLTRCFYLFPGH

[4] = target: T3, Muscarinic acetylcholine receptor M4 (Homo sapiens, UniProt P08173); format: cell membranes, CHO-K1, Membrane; note: in other assays of this panel Not Active means under 50% inhibition at 10 µM
T3 sequence (P08173 whole entry): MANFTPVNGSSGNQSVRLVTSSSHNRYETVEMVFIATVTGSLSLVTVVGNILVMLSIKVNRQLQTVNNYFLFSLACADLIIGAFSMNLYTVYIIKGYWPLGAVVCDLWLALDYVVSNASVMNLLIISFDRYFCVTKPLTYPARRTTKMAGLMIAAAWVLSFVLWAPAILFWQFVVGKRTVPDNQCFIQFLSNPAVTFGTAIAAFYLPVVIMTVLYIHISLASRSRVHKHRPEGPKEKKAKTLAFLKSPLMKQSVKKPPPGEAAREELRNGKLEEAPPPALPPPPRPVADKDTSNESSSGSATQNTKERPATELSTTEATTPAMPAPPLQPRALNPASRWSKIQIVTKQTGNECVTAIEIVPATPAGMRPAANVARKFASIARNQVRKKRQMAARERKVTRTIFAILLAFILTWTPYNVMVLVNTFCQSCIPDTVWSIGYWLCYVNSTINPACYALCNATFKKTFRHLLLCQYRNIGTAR

[5] = target: Epidermal growth factor receptor (Homo sapiens, UniProt P00533); test: DRUGMATRIX: Protein Tyrosine Kinase, EGF Receptor enzyme inhibition (substrate: Poly(Glu:Tyr)); format: cell-based, Insect cells; settings: insect cells; Not Active = under 50% inhibition at 10 µM
Chain of Epidermal growth factor receptor (P00533 whole entry): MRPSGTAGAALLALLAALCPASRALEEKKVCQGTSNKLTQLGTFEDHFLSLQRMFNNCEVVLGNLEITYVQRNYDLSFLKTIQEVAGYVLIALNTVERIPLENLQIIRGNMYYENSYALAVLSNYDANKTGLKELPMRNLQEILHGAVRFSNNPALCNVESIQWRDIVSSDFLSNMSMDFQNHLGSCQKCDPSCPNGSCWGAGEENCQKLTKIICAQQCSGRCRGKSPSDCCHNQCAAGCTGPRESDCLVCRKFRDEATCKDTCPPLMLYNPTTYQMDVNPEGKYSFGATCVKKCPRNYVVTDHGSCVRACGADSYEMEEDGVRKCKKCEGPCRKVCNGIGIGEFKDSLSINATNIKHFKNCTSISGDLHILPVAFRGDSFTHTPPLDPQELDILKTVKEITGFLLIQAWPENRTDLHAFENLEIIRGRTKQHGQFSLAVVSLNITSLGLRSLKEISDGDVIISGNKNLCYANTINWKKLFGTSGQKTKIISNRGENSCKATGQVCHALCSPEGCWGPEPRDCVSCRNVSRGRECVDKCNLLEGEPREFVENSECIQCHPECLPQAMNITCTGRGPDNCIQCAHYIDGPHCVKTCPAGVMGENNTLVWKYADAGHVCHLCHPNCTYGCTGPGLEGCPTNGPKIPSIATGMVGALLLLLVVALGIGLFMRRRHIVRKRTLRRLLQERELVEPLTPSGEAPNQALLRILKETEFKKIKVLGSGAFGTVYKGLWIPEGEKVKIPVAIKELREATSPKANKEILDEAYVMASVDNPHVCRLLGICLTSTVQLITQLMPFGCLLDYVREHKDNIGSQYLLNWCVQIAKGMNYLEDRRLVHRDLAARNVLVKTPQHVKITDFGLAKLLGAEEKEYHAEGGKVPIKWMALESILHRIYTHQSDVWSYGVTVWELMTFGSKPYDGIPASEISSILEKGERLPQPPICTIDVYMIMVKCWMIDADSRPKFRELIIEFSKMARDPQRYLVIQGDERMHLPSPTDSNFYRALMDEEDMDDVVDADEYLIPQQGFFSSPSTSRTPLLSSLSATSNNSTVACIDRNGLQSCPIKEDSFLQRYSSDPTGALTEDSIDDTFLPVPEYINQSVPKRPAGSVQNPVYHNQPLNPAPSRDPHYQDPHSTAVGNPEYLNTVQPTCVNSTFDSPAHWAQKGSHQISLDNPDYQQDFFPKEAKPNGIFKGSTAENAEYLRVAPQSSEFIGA

[6] = target: 5-hydroxytryptamine receptor 1B (Rattus norvegicus, UniProt P28564); format: cell membranes, Wistar, Cerebral cortex, Membrane; note: in other assays of this panel Not Active means under 50% inhibition at 10 µM
Chain of 5-hydroxytryptamine receptor 1B (P28564 whole entry): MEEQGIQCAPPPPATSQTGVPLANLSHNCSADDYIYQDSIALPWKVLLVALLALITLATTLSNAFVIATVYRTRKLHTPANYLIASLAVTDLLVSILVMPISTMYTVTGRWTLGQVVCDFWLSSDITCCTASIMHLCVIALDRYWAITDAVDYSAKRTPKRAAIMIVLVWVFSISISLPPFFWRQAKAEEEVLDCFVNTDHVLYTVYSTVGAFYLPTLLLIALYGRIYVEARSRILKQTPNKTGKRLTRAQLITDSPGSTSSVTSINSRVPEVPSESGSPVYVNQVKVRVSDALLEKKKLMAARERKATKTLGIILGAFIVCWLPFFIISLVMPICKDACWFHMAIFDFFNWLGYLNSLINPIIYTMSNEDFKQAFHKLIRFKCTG

[7] = target: Kappa-type opioid receptor (Homo sapiens, UniProt P41145); test: DRUGMATRIX: Opiate kappa (OP2, KOP) radioligand binding (ligand: [3H] Diprenorphine); format: cell membranes, HEK293, Membrane; settings: hek293; Not Active = under 50% inhibition at 10 µM
Chain of Kappa-type opioid receptor (P41145 whole entry): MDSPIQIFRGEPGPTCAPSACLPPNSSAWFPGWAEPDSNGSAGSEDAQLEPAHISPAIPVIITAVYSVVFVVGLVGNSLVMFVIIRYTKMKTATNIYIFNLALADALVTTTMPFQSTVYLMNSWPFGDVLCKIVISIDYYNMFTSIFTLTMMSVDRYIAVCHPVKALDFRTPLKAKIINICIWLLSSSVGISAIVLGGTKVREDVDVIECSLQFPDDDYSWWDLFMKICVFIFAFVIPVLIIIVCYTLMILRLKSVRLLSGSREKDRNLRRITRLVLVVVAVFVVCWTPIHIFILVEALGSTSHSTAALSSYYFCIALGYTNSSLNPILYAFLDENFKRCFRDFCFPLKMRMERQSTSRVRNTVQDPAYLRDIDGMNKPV

[8] = target: T4, C-C chemokine receptor type 4 (Homo sapiens, UniProt P51679); format: cell membranes, Membrane; settings: chem-1; note: in other assays of this panel Not Active means under 50% inhibition at 10 µM
T4 sequence (P51679 whole entry): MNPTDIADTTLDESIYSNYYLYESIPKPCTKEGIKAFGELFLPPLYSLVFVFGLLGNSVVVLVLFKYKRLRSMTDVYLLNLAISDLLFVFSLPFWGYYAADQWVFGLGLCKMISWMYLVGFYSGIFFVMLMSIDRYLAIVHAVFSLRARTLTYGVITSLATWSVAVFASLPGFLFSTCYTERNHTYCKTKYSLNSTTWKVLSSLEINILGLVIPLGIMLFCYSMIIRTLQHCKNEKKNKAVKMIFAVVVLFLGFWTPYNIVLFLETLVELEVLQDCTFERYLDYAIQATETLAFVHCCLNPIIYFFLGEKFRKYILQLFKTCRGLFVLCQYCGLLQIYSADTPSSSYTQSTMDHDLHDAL

[9] = target: Receptor tyrosine-protein kinase erbB-2 (Homo sapiens, UniProt P04626); test: biochemical; format: cell-based, Insect cells; settings: insect cells
Chain of Receptor tyrosine-protein kinase erbB-2 (P04626 whole entry): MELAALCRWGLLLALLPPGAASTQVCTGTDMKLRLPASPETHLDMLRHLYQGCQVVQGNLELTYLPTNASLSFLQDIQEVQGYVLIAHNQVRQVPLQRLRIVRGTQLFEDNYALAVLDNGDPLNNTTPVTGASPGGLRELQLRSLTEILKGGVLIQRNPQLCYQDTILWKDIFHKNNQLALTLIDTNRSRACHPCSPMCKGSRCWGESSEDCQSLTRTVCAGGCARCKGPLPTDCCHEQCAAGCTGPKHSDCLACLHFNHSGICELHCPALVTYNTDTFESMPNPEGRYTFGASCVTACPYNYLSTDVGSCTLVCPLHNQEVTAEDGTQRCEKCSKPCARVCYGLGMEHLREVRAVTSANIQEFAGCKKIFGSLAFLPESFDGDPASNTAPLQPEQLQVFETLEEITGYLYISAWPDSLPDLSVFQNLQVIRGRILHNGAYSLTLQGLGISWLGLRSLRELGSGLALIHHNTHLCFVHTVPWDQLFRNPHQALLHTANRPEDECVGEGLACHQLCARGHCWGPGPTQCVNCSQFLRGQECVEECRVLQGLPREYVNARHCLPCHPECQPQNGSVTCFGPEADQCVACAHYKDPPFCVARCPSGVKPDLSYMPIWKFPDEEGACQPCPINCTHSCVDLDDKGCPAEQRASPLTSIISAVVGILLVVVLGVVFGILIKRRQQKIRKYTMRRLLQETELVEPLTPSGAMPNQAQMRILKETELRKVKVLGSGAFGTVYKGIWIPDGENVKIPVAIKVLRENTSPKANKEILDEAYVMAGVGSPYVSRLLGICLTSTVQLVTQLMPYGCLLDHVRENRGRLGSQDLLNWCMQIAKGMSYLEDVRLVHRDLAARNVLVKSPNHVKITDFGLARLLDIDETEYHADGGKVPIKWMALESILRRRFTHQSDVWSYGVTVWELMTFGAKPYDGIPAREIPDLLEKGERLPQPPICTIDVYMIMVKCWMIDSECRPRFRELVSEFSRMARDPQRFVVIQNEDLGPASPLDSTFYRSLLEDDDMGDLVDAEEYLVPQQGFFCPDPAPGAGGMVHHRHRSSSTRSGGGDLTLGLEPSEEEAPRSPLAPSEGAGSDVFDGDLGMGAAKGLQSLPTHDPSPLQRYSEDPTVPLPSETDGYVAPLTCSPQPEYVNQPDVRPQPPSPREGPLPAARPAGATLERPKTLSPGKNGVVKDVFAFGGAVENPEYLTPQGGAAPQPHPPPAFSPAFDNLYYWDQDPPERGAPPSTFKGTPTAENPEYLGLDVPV

Chain of Mitogen-activated protein kinase 1 (P28482 whole entry): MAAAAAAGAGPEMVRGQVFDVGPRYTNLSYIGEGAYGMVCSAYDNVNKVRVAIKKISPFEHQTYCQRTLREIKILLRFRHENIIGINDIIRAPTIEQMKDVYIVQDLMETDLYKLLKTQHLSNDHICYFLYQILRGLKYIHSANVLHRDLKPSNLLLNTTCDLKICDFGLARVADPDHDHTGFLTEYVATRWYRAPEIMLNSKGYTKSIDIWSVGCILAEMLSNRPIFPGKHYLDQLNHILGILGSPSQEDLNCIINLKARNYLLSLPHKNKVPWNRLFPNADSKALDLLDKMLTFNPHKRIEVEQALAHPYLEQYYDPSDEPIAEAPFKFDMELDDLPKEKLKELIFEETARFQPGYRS

| SMILES | IC50 [1] | IC50 (Glucocorticoid receptor) | IC50 (Melanocortin receptor 3) | IC50 [2] | Ki [2] | IC50 (Insulin receptor) | IC50 (Cytochrome P450 2C9) | Ki (Cytochrome P450 2C9) | IC50 [3] | Ki [3] | IC50 (Caspase-1) | IC50 ([4]; cho-k1) | IC50 [5] | IC50 [6] | IC50 [7] | IC50 [8] | IC50 [9] | IC50 ([4]; read-out: IC50) [nM] | Ki ([4]; read-out: Ki) [nM] |
| --- | --- | --- | --- | --- | --- | --- | --- | --- | --- | --- | --- | --- | --- | --- | --- | --- | --- | --- | --- |
| C/C=C1\[C@H]2C=C(C)C[C@]1(N)c1ccc(=O)[nH]c1C2 [HUPERZINE A] | Not Active | Not Active | Not Active | Not Active | Not Active | Not Active | Not Active | Not Active | Not Active | Not Active | Not Active | Not Active | Not Active | Not Active | Not Active | Not Active | Not Active | – | – |
| NS(=O)(=O)c1cc2c(cc1Cl)NCNS2(=O)=O [HYDROCHLOROTHIAZIDE] | Not Active | Not Active | Not Active | Not Active | Not Active | Not Active | Not Active | Not Active | Not Active | Not Active | Not Active | Not Active | Not Active | Not Active | Not Active | Not Active | Not Active | – | – |
| O=C1CN=C(c2ccccc2)c2cc([N+](=O)[O-])ccc2N1 [NITRAZEPAM] | Not Active | Not Active | Not Active | Not Active | Not Active | Not Active | Not Active | Not Active | Not Active | Not Active | Not Active | Not Active | Not Active | Not Active | Not Active | Not Active | Not Active | – | – |
| CN(C)[C@@H]1C(O)=C(C(N)=O)C(=O)[C@@]2(O)C(O)=C3C(=O)c4c(O)cccc4[C@@](C)(O)[C@H]3[C@H](O)[C@@H]12 [OXYTETRACYCLINE] | Not Active | Not Active | Not Active | Not Active | Not Active | Not Active | Not Active | Not Active | Not Active | Not Active | Not Active | Not Active | Not Active | Not Active | Not Active | Not Active | Not Active | – | – |
| Fc1ccc([C@@H]2CCNC[C@H]2COc2ccc3c(c2)OCO3)cc1 [PAROXETINE] | Not Active | Not Active | Not Active | Not Active | Not Active | Not Active | Not Active | Not Active | Not Active | Not Active | Not Active | – | Not Active | Not Active | Not Active | Not Active | Not Active | 244 | 34 |
| CC(C)(S)[C@@H](N)C(=O)O [PENICILLAMINE] | Not Active | Not Active | Not Active | Not Active | Not Active | Not Active | Not Active | Not Active | Not Active | Not Active | Not Active | Not Active | Not Active | Not Active | Not Active | Not Active | Not Active | – | – |
